We go through 29 compounds from PubChem BioAssay (NCI).

Values joined by “and” are separate entries in the source; they are usually repeats but may differ in a detail not shown here. Identical values can stand only once.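 Assay format: 96-well plates, 48-hour exposure. The concentration for 50% growth inhibition is given as GI50. TGI is the concentration that stops growth completely.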 Where a SMILES comes first, the peptide text is derived from it. The star is where a group is joined. Cbz = O=C(OCc1ccccc1)*

What all share (test): growth of human tumour cells (NCI), 48 h
Assay [1] concerns HCT-116 colon.
Assay [2] deals with OVCAR-8 ovarian.
The test system of assay [3] is HCT-15 colon.
In assay [4] the test system is SK-OV-3 ovarian.
Assay [5] deals with UO-31 renal.
For assay [6], the system named is LOX IMVI melanoma.
Assay [7] deals with KM12 colon.
Assay [8] relates to U251 CNS.
The subject of assay [9] is MDA-MB-231 breast.
In assay [10] the test system is NCI/ADR-RES ovarian.

On to `C#CCOC(=O)C=[N+]=[N-]`, for which the TGI in assay [1], in assay [2], in [3], in assay [4], in assay [5] and in assay [6] was above 10 µM in each case. In addition, the TGI in [7], in assay [8] and in assay [9] was above 10 µM in each case.

`Cc1ccc(N=NC(=Nc2ccc(F)cc2)c2ccc(N(CCC#N)CCC#N)cc2)cc1`: the TGI in assay [1], in [2], in assay [3], in assay [10], in [4] and in assay [5] was above 100 µM each time. Moreover, the TGI in assay [7], in assay [8] and in assay [9] was above 100 µM each time.

As to `CCOC(=O)c1nc2ccccc2nc1Nc1cc(OC)c(OC)c(OC)c1`, the TGI in [1], in assay [3], in assay [10], in assay [4], in [5] and in assay [7] was above 100 µM in each case. The TGI in assay [8] and in assay [9] was above 100 µM throughout.

Take `Cc1cc2c(cc1Cl)SSc1cc(Cl)c(C)cc1S(=O)(=O)Nc1nc(N)nn1C(O)n1nc(N)nc1NS2(=O)=O`: the TGI in [1], in assay [2], in assay [3], in assay [10], in assay [4] and in [5] was above 10 µM in each case. Besides, the TGI in assay [6], in assay [7] and in assay [8] was above 10 µM each time.

Take `CCOC(=O)CCC(NC(=O)C(CC(=O)OC)NC(=O)OCc1ccccc1)C(=O)NC(CC(=O)OC)C(=O)NC(CCC(=O)OCC)C(=O)NC(CC(=O)OC)C(=O)NC(CCC(=O)OCC)C(=O)NC(CC(=O)OCC)C(=O)OCC` (centres undefined) (Cbz-D(OMe)E(OEt)D(OMe)E(OEt)D(OMe)E(OEt)D(OEt)-OEt; configuration not given here): the TGI in assay [1], in [2], in [3], in assay [5], in assay [6] and in [8] was above 100 µM in each case. This compound also yielded a TGI in assay [9] above 100 µM.

With `COC(=O)/C(=C(/C)c1ccco1)P(=O)(OC)OC`, the TGI in [1], in assay [2], in assay [3], in [10], in assay [4] and in [6] was above 100 µM each time. Moreover, the TGI in [7], in [8] and in assay [9] was above 100 µM each time.

With `CCCCOc1ccc(/C=C/C2=[N+](CCO)CCO2)cc1`, the TGI in assay [1], in assay [2], in assay [3], in assay [10], in assay [4] and in assay [5] was above 100 µM in each case. In addition, the TGI in [7], in assay [8] and in [9] was above 100 µM each time.

Take `CC(C)(C)c1ccc(O)c(C(O)c2ccccn2)c1` (centres undefined): the TGI in [1], in assay [2], in assay [3], in assay [10], in assay [5] and in assay [6] was above 100 µM in each case. Besides, the TGI in assay [7], in assay [8] and in assay [9] was above 100 µM each time.

For the compound `CCO/C(O)=c1/s/c(=C2/SC(=S)N(c3ccc(C)cc3)C2=O)n(-c2ccccc2)c1=N`, the TGI in assay [1] was above 100 µM; in [2], above 100 µM; in assay [3], above 100 µM; in [10], above 100 µM; in assay [4], above 76 µM; in [5] it was above 100 µM. In addition, the TGI in assay [7] was above 100 µM; in assay [8], above 100 µM; in assay [9], 59 µM.

As for `COc1ccc(/C=C2\C(=O)N(C(=O)c3ccc(NC(C)=O)cc3)N=C2C)cc1OC`, the TGI in [1], in assay [2], in assay [3], in [5], in assay [6] and in assay [7] was above 100 µM each time.

`CCN(CC)P(=O)(c1ccc2c(c1)OCCOCCOCCOCCO2)N(CC)CC`: the TGI in assay [1], in [2], in [3], in assay [4], in [5] and in [6] was above 100 µM each time. The TGI in [7] and in [9] was above 100 µM in each case.

For `CCOC(=O)c1ccc(-c2onc(C)c2Br)[nH]1`, the TGI in [1], in assay [2], in [3], in [10], in assay [4] and in assay [5] was above 100 µM throughout. Also, the TGI in assay [7], in assay [8] and in assay [9] was above 100 µM in each case.

Regarding `CCOC(=O)Cn1nnc2ccc(Nc3nc4ccccc4nc3C(=O)OCC)cc21`, the TGI in assay [1], in assay [2], in [3], in [10], in assay [4] and in [5] was above 100 µM in each case. The TGI in [6], in assay [7] and in assay [8] was above 100 µM each time.

For the compound `COc1ccc(OC)c([N+](=O)[O-])c1-c1nc2sc(Cl)cn2c1/C=N/N=C(N)N`, the TGI in [1] was above 100 µM; in assay [2] it was 43.1 µM; in assay [3], above 100 µM; in assay [10], above 100 µM; in [5], 33.1 µM; in assay [6], above 100 µM. In addition, the TGI in assay [7] was 46.3 µM; in assay [8], above 100 µM; in [9] it was 35.7 µM.

Regarding `CN1CCN(c2n[nH]c(=O)c3c2nnn3Cc2ccccc2)CC1`, the TGI in assay [1], in assay [2], in assay [3], in assay [10], in assay [5] and in [6] was above 100 µM throughout. Also, the TGI in assay [7], in assay [8] and in [9] was above 100 µM in each case.

Consider `CC(C)(C)OC(=O)C1C(=O)NC(=O)CC1C(OCc1ccccc1)C(OCc1ccccc1)C(COCc1ccccc1)OCc1ccccc1` (centres undefined), for which the GI50 in [1] was > 100 µM and 48.1 µM; in assay [5], 42.6 µM and 10.5 µM; in [6], > 100 µM and 41.8 µM; in [7], > 100 µM and 24.5 µM; in [8] it was 68 µM and 14.4 µM; in [9], > 100 µM and 40.5 µM. The TGI in assay [1] was above 100 µM; in assay [2], above 100 µM; in assay [3], above 100 µM; in assay [10] it was above 100 µM; in assay [5], > 100 µM and 30.3 µM; in [6], above 100 µM. In addition, the TGI in assay [7], in [8] and in assay [9] was above 100 µM in each case.

For the compound `OC1C2CN3CCN(C2)CC1(c1ccccc1)C3` (centres undefined), the TGI in [1], in assay [2], in [10], in assay [5], in assay [6] and in assay [7] was above 100 µM in each case. The TGI in assay [8] and in [9] was above 100 µM in each case.

For `CCOc1cc2c(cc1OC)c[n+](C)c1c3cc(OC)c(OC)cc3ccc21`, the TGI is above 100 µM in assay [1]; above 100 µM in assay [2]; above 100 µM in [3]; above 100 µM in [4]; above 100 µM in assay [5]; above 81.3 µM in assay [6]. Moreover, the TGI is above 100 µM in assay [7] and above 48.2 µM in assay [8].

Consider `Cc1c2ccccc2c(=O)n2c(-c3ccccn3)cccc12`, for which the TGI in assay [1], in [2], in assay [3], in assay [4], in [5] and in assay [6] was above 100 µM in each case. Further, the TGI in assay [7] and in assay [8] was above 100 µM throughout.

For `CC(C)NC1CCCCC2c3ccccc3C12O` (centres undefined), the TGI in [1], in assay [2], in [3], in [4], in assay [5] and in assay [6] was above 100 µM each time. The TGI in [7] and in assay [8] was above 100 µM each time.

Take `CC(C)C(Sc1nc(-c2ccccc2)c(-c2ccccc2)[nH]1)C(=O)N/N=C/c1ccc(Cl)cc1` (centres undefined): the TGI amounted to 29.4 µM in assay [1]; 53.6 µM in assay [2]; 59.3 µM in assay [3]; 67 µM in assay [4]; 47.8 µM in assay [5]; 28.9 µM in [6]. Also, the TGI in assay [7] was found to be 44.7 µM; in [8], 39.5 µM.

Turning to `O=[N+]([O-])C(/C(Cl)=C(/Cl)N1CCOCC1)=C1\Nc2ccccc2O1`, the TGI in [1], in assay [2], in [3], in [10], in assay [4] and in assay [5] was above 100 µM each time. Further, the TGI in [7], in assay [8] and in [9] was above 100 µM in each case.

For the compound `CN(C)CC1CCC/C(=C\c2ccc(Cl)c(Cl)c2)C1=O` (centres undefined), the TGI in [1] turned out to be 3.96 µM; in assay [2] it was 9.89 µM; in assay [3], 6.33 µM; in [10], 22.8 µM; in assay [4] it was 20.3 µM; in [5] it was 5.99 µM. In addition, the TGI in [7] worked out at 4.04 µM; in [8] it was 6.52 µM; in assay [9], 10.9 µM.

Turning to `O=C1O/C(=C(\Br)c2ccc([N+](=O)[O-])cc2)c2ccccc21`, the TGI in [1] is above 100 µM; in assay [2], above 100 µM; in [3], above 81.5 µM; in [10], above 100 µM; in assay [4], above 100 µM; in [5], above 100 µM. The TGI in assay [6], in [7] and in [8] was above 100 µM in each case.

As to `Cc1cc(C)c2c(-c3ccccc3)cc(=O)[nH]c2c1`, the TGI in assay [1], in assay [2], in [3], in [10], in [4] and in assay [6] was above 100 µM in each case. Further, the TGI in assay [7], in assay [8] and in [9] was above 100 µM throughout.

For `CN(C)c1ccc(-c2c(C#N)c(-c3ccccc3)n(NS(=O)(=O)c3ccccc3)c(=O)c2C#N)cc1`, the TGI in assay [1], in assay [2], in assay [3], in assay [10], in assay [4] and in [6] was above 100 µM each time. Further, the TGI in [7], in [8] and in [9] was above 100 µM throughout.

Consider `O=c1[nH]nc(-c2ccc3ccccc3c2)[nH]1`, for which the TGI in assay [1], in [2], in assay [3], in assay [10], in assay [5] and in [6] was above 100 µM throughout. In addition, the TGI in assay [7] and in assay [8] was above 100 µM throughout.

For the compound `CCCSc1ccc2[nH]c(N3C(=O)/C(=C/c4ccc(O)c(OC)c4)N=C3c3ccccc3)cc2c1`, the TGI in assay [1] was above 100 µM; in assay [2] it was above 100 µM; in assay [3], 32 µM; in [10], above 100 µM; in assay [4], 76.3 µM; in assay [5], above 100 µM. Besides, the TGI in assay [6] and in assay [7] was above 100 µM in each case.

Regarding `COc1ccc(-c2nc(-c3nc4cc(Cl)c(Cl)cc4[nH]3)c3ccccn23)cc1`, the GI50 in assay [3] was 30.1 µM; in [10], 3.9 µM; in assay [6], 3.6 µM; in assay [7], above 100 µM; in assay [8], 3.05 µM. The TGI in assay [3], in assay [10], in [6], in assay [7] and in [8] was above 100 µM in each case.
